Reference: the supplement of paper PMC8967900

Assays:
Assay in all cases: selective drug sensitivity score (sDSS, relative to normal bone marrow) (sDSS (score)); higher = more potent and effective on the cell line relative to normal bone marrow cells
Details in all cases: 72 h
JURKAT = system: JURKAT
MHH-CALL-3 = system: MHH-CALL-3
MHH-CALL-2 = system: MHH-CALL-2
LC4-1 = system: LC4-1
MOLT-16 = system: MOLT-16
COG-LL-394h = system: COG-LL-394h
KOPN-8 = system: KOPN-8
P30-OHKUBO = system: P30-OHKUBO
KARPAS-45 = system: KARPAS-45
NALL-1 = system: NALL-1
COG-LL-355h = system: COG-LL-355h
RCH-ACV = system: RCH-ACV
HPB-ALL = system: HPB-ALL
KASUMI-10 = system: KASUMI-10
380 = system: 380
697 = system: 697
SEM cells = system: SEM cells
MN-60 = system: MN-60
CCRF-HSB2 = system: CCRF-HSB2
RPMI-8402 = system: RPMI-8402
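Note: ALL cell lines in 384-well plates, five doses spanning 10,000-fold, each plate scaled between vehicle and 100 µmol/L benzalkonium chloride controls, sDSS an adapted area-under-curve metric.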

Compound: Cn1c(Nc2ccc(C(F)(F)F)cc2)nc2cc(Oc3ccnc(-c4ncc(C(F)(F)F)[nH]4)c3)ccc21 [NVP-RAF265] (top concentration 1000 nM)
- selective drug sensitivity score (JURKAT): 2.88
- selective drug sensitivity score (MHH-CALL-3): 7.68
- selective drug sensitivity score (MHH-CALL-2): 12
- selective drug sensitivity score (LC4-1): 7.48
- selective drug sensitivity score (MOLT-16): 8.68
- selective drug sensitivity score (COG-LL-394h): 5.98
- selective drug sensitivity score (KOPN-8): 4.18
- selective drug sensitivity score (P30-OHKUBO): 4.38
- selective drug sensitivity score (KARPAS-45): 7.68
- selective drug sensitivity score (NALL-1): 2.88
- selective drug sensitivity score (COG-LL-355h): 10.3
- selective drug sensitivity score (RCH-ACV): 6.68
- selective drug sensitivity score (HPB-ALL): 0.08
- selective drug sensitivity score (KASUMI-10): 6.08
- selective drug sensitivity score 380: 2.68
- selective drug sensitivity score 697: 9.68
- selective drug sensitivity score (SEM cells): 4.48
- selective drug sensitivity score (MN-60): -0.22
- selective drug sensitivity score (CCRF-HSB2): 5.98
- selective drug sensitivity score (RPMI-8402): 0.98

Compound: CC1(C)CC[C@]2(NC(=O)C(C)(F)F)CC[C@]3(C)[C@H](C(=O)C=C4[C@@]5(C)C=C(C#N)C(=O)C(C)(C)[C@@H]5CC[C@]43C)[C@@H]2C1 [Omaveloxolone] (top concentration 10000 nM)
- selective drug sensitivity score (JURKAT): 0.88
- selective drug sensitivity score (MHH-CALL-3): 10.1
- selective drug sensitivity score (MHH-CALL-2): 0.58
- selective drug sensitivity score (LC4-1): 7.38
- selective drug sensitivity score (MOLT-16): 4.88
- selective drug sensitivity score (COG-LL-394h): 0.48
- selective drug sensitivity score (KOPN-8): 8.68
- selective drug sensitivity score (P30-OHKUBO): 0.68
- selective drug sensitivity score (KARPAS-45): 1.68
- selective drug sensitivity score (NALL-1): 3.98
- selective drug sensitivity score (COG-LL-355h): 4.88
- selective drug sensitivity score (RCH-ACV): 6.28
- selective drug sensitivity score (HPB-ALL): 3.58
- selective drug sensitivity score (KASUMI-10): 2.58
- selective drug sensitivity score 380: 10.9
- selective drug sensitivity score 697: 4.78
- selective drug sensitivity score (SEM cells): 4.88
- selective drug sensitivity score (MN-60): 1.08
- selective drug sensitivity score (CCRF-HSB2): 3.78
- selective drug sensitivity score (RPMI-8402): 0.88

Compound: CC(C)c1cc(C(=O)N2Cc3ccc(CN4CCN(C)CC4)cc3C2)c(O)cc1O [Onalespib] (top concentration 2500 nM)
- selective drug sensitivity score (JURKAT): -1.18
- selective drug sensitivity score (MHH-CALL-3): 8.42
- selective drug sensitivity score (MHH-CALL-2): -1.28
- selective drug sensitivity score (LC4-1): 3.22
- selective drug sensitivity score (MOLT-16): 7.42
- selective drug sensitivity score (COG-LL-394h): -2.38
- selective drug sensitivity score (KOPN-8): 6.82
- selective drug sensitivity score (P30-OHKUBO): 1.32
- selective drug sensitivity score (KARPAS-45): 5.42
- selective drug sensitivity score (NALL-1): -4.68
- selective drug sensitivity score (COG-LL-355h): 3.32
- selective drug sensitivity score (RCH-ACV): 6.52
- selective drug sensitivity score (HPB-ALL): 4.62
- selective drug sensitivity score (KASUMI-10): 3.92
- selective drug sensitivity score 380: 6.52
- selective drug sensitivity score 697: 2.82
- selective drug sensitivity score (SEM cells): 3.92
- selective drug sensitivity score (MN-60): -0.48
- selective drug sensitivity score (CCRF-HSB2): 7.32
- selective drug sensitivity score (RPMI-8402): 1.32

Compound: COC[C@H](NC(=O)c1cnc(C)s1)C(=O)N[C@@H](COC)C(=O)N[C@@H](Cc1ccccc1)C(=O)[C@@]1(C)CO1 [Oprozomib] (top concentration 2500 nM)
- selective drug sensitivity score (JURKAT): 0.3
- selective drug sensitivity score (MHH-CALL-3): 3.3
- selective drug sensitivity score (MHH-CALL-2): 0.4
- selective drug sensitivity score (LC4-1): 3.7
- selective drug sensitivity score (MOLT-16): 4.7
- selective drug sensitivity score (COG-LL-394h): 1.2
- selective drug sensitivity score (KOPN-8): 3
- selective drug sensitivity score (P30-OHKUBO): 5.7
- selective drug sensitivity score (KARPAS-45): 4.6
- selective drug sensitivity score (NALL-1): 0.9
- selective drug sensitivity score (COG-LL-355h): 8.4
- selective drug sensitivity score (RCH-ACV): -1.1
- selective drug sensitivity score (HPB-ALL): -0.5
- selective drug sensitivity score (KASUMI-10): 3.7
- selective drug sensitivity score 380: 0.3
- selective drug sensitivity score 697: 0.2
- selective drug sensitivity score (SEM cells): 11.3
- selective drug sensitivity score (MN-60): -4.3
- selective drug sensitivity score (CCRF-HSB2): 14.2
- selective drug sensitivity score (RPMI-8402): 2.8

Compound: COc1ccccc1S(=O)(=O)Nc1ccc2c(c1)CN(C)C(=O)N2 [PFI-1] (top concentration 30000 nM)
- selective drug sensitivity score (JURKAT): 0.8
- selective drug sensitivity score (MHH-CALL-3): 5.4
- selective drug sensitivity score (MHH-CALL-2): 3.5
- selective drug sensitivity score (LC4-1): 4.2
- selective drug sensitivity score (MOLT-16): 8.6
- selective drug sensitivity score (COG-LL-394h): 0.3
- selective drug sensitivity score (KOPN-8): 17.3
- selective drug sensitivity score (P30-OHKUBO): 6.1
- selective drug sensitivity score (KARPAS-45): 3.1
- selective drug sensitivity score (NALL-1): -4.1
- selective drug sensitivity score (COG-LL-355h): 8.7
- selective drug sensitivity score (RCH-ACV): 5.4
- selective drug sensitivity score (HPB-ALL): 1
- selective drug sensitivity score (KASUMI-10): 3.5
- selective drug sensitivity score 380: 0.1
- selective drug sensitivity score 697: 3.7
- selective drug sensitivity score (SEM cells): 4.7
- selective drug sensitivity score (MN-60): 2.9
- selective drug sensitivity score (CCRF-HSB2): 1
- selective drug sensitivity score (RPMI-8402): 2.5

Compound: NS(=O)(=O)OC[C@@H]1C[C@@H](n2ccc3c(N[C@H]4CCc5ccccc54)ncnc32)C[C@@H]1O [Pevonedistat] (top concentration 10000 nM)
- selective drug sensitivity score (JURKAT): 12.6
- selective drug sensitivity score (MHH-CALL-3): 7.4
- selective drug sensitivity score (MHH-CALL-2): 10
- selective drug sensitivity score (LC4-1): 10
- selective drug sensitivity score (MOLT-16): 16.7
- selective drug sensitivity score (COG-LL-394h): 2.7
- selective drug sensitivity score (KOPN-8): 13
- selective drug sensitivity score (P30-OHKUBO): 11.1
- selective drug sensitivity score (KARPAS-45): 12.1
- selective drug sensitivity score (NALL-1): 9.4
- selective drug sensitivity score (COG-LL-355h): 6
- selective drug sensitivity score (RCH-ACV): 12.3
- selective drug sensitivity score (HPB-ALL): 5.7
- selective drug sensitivity score (KASUMI-10): 19.1
- selective drug sensitivity score 380: 8.5
- selective drug sensitivity score 697: 13.1
- selective drug sensitivity score (SEM cells): 9.9
- selective drug sensitivity score (MN-60): 6.5
- selective drug sensitivity score (CCRF-HSB2): 16.3
- selective drug sensitivity score (RPMI-8402): 16.2

Compound: CCCCc1nc2cc(/C=C/C(=O)NO)ccc2n1CCN(CC)CC [Pracinostat] (top concentration 10000 nM)
- selective drug sensitivity score (JURKAT): 2.48
- selective drug sensitivity score (MHH-CALL-3): 16.5
- selective drug sensitivity score (MHH-CALL-2): 8.98
- selective drug sensitivity score (LC4-1): 6.18
- selective drug sensitivity score (MOLT-16): 6.28
- selective drug sensitivity score (COG-LL-394h): 0.18
- selective drug sensitivity score (KOPN-8): 8.68
- selective drug sensitivity score (P30-OHKUBO): 5.68
- selective drug sensitivity score (KARPAS-45): 9.78
- selective drug sensitivity score (NALL-1): 3.18
- selective drug sensitivity score (COG-LL-355h): 3.58
- selective drug sensitivity score (RCH-ACV): 14.6
- selective drug sensitivity score (HPB-ALL): 6.88
- selective drug sensitivity score (KASUMI-10): 6.18
- selective drug sensitivity score 380: 13.2
- selective drug sensitivity score 697: 7.68
- selective drug sensitivity score (SEM cells): 5.28
- selective drug sensitivity score (MN-60): -1.42
- selective drug sensitivity score (CCRF-HSB2): 5.88
- selective drug sensitivity score (RPMI-8402): 5.08

Compound: COc1cccc(OCCCN)c1-c1cc(Nc2cnc(C#N)cn2)n[nH]1 [Prexasertib] (top concentration 10000 nM)
- selective drug sensitivity score (JURKAT): 17.4
- selective drug sensitivity score (MHH-CALL-3): 13.4
- selective drug sensitivity score (MHH-CALL-2): 20.1
- selective drug sensitivity score (LC4-1): 19.6
- selective drug sensitivity score (MOLT-16): 21
- selective drug sensitivity score (COG-LL-394h): -0.96
- selective drug sensitivity score (KOPN-8): 20.4
- selective drug sensitivity score (P30-OHKUBO): 21.3
- selective drug sensitivity score (KARPAS-45): 17.5
- selective drug sensitivity score (NALL-1): 19.4
- selective drug sensitivity score (COG-LL-355h): 4.24
- selective drug sensitivity score (RCH-ACV): 20.9
- selective drug sensitivity score (HPB-ALL): 14.6
- selective drug sensitivity score (KASUMI-10): 16.1
- selective drug sensitivity score 380: 15.7
- selective drug sensitivity score 697: 18.4
- selective drug sensitivity score (SEM cells): 15.9
- selective drug sensitivity score (MN-60): 4.24
- selective drug sensitivity score (CCRF-HSB2): 18.6
- selective drug sensitivity score (RPMI-8402): 19.2

Compound: Cc1cn(-c2cc(NC(=O)c3ccc(C)c(Nc4nccc(-c5cnccn5)n4)c3)cc(C(F)(F)F)c2)cn1 [Radotinib] (top concentration 10000 nM)
- selective drug sensitivity score (JURKAT): 0
- selective drug sensitivity score (MHH-CALL-3): 0
- selective drug sensitivity score (MHH-CALL-2): 10.1
- selective drug sensitivity score (LC4-1): 13.8
- selective drug sensitivity score (MOLT-16): 0.4
- selective drug sensitivity score (COG-LL-394h): 1.8
- selective drug sensitivity score (KOPN-8): 10.3
- selective drug sensitivity score (P30-OHKUBO): 5.1
- selective drug sensitivity score (KARPAS-45): 0
- selective drug sensitivity score (NALL-1): 0
- selective drug sensitivity score (COG-LL-355h): 0
- selective drug sensitivity score (RCH-ACV): 9.4
- selective drug sensitivity score (HPB-ALL): 6.4
- selective drug sensitivity score (KASUMI-10): 0
- selective drug sensitivity score 380: 1.8
- selective drug sensitivity score 697: 5.7
- selective drug sensitivity score (SEM cells): 0
- selective drug sensitivity score (MN-60): 0.4
- selective drug sensitivity score (CCRF-HSB2): 8.2
- selective drug sensitivity score (RPMI-8402): 3.3
